# Results reported in patent US20130338457A1, “METHOD AND APPARATUS FOR DETECTING DISEASES ASSOCIATED WITH THE EYE” (THE REGENTS OF THE UNIVERSITY OF MICHIGAN, priority 2007, published 2013).
# Legend:
# Format in all cases: cell-based
# rat neural retina cells = assay: FA production in fresh rat retina pieces ex vivo; conditions: FIG. 26; for FA production with apoptotic stimulus: rat neural retina
# Method: (§1) To provide an in vitro correlate of the imaging method described above, studies were pursued of: RPE cells in vitro and fresh pieces of rat and human retina ex vivo. Both retinal fragments and RPE cells serve as good in vitro models of the human retina. To model the apoptotic events taking place in the eye, apoptotic stimuli (H2O2 and ceramide) were added to these samples. These stimuli are particularly judicious choices because both oxidative molecules and ceramide have been reported to be key mediators of retinal apoptosis.
# (§2) At lethal levels, FA correlates with apoptosis measured by TUNEL and other assays.
# human retina cells = assay: FA production in fresh human retina pieces ex vivo; conditions: FIG. 25; for FA production with apoptotic stimulus: human retina pieces
# Method: as §1, §2
# [1] = system: human retinal pigment epithelial (HRPE) cells; assay: Flavoprotein autofluorescence (FA) measurement in cultured HRPE cells; conditions: for FA after exposure to pro-apoptotic agent: exposure for 2 hours, H2O2 0.2 mM, C2-ceramide 50 μM
# Method: HRPE cells were isolated from donor eyes by enzymatic digestion as previously described. Briefly, the sensory retina was separated gently from the HRPE monolayer, and the HRPE cells were removed from Bruch's membrane using one hour incubation with papain. Isolated HRPE cells were grown into Falcon Primaria flasks in DMEM/F12 containing 10% fetal bovine serum (FBS), penicillin G (100 U ml-1), streptomycin sulfate (100 μg ml-1), and amphotericin B (0.25 μg ml-1) at 37° C. in a humidified incubator under 5% CO2. In all experiments, parallel assays were performed on the second to fourth passage of HRPE cells. HRPE cells were seeded into tissue culture 96-well assay plates (black walls with clear bottoms (Costar) at the same time and density from the same parent cultures, and grown in phenol red-free complete DMEM/F12 for at least 7 days. All experiments were repeated at least three times on different cell lines.
# HRPE cells in 96-well plates were washed with Hanks' balanced salt solution (HBSS), containing Ca2+ and Mg2+, without phenol red. […] Other HRPE cells in 96-well plates were pre-incubated for 30 minutes with or without dihydroceramide C2 (50 μM), followed by stimulation with C2-ceramide (50 μM) for 2 hours in the presence and absence of the same inhibitor used during pre-incubation.
# FA was measured with a photomicroscope equipped with narrow bandwidth excitation and emission filters of 465 nm and 535 nm, respectively.
# human neural retina = assay: Cell Death Detection ELISA of neural retinal apoptosis
# Method: To evaluate neural retinal apoptosis, pieces of human neural retina were analyzed by using a Cell Death Detection […] kit. This photometric enzyme immunoassay provides the quantitative in vitro determination of cytoplasmic histone-associated DNA fragments (mono- and oligonucleosomes) after induced cell death (shown in FIG. 24).
structure (smiles),measurement,setting,value
CCCCCCCCCCCCC/C=C/[C@@H](O)[C@H](CO)NC(C)=O [C2-ceramide],FA production with apoptotic stimulus,rat neural retina cells,elevated flavoprotein autofluorescence (FA)
same,FA production with apoptotic stimulus,human retina cells,elevated flavoprotein autofluorescence (FA)
same,FA after exposure to pro-apoptotic agent,[1]; HRPE cells,significantly elevated FA
c1ccc2c(c1)[I+]c1ccccc1-2 [DPI],Effect of toxins on FA signal,[1],abrogate the FA signal
CC(=O)N[C@@H](CS)C(=O)O [N-acetyl-cysteine],Effect on hydrogen peroxide-induced FA production,rat neural retina cells; rat neural retina cells,attenuated
same,Effect on cell death by hydrogen peroxide,human neural retina; FIG. 24,attenuated
same,Effect on hydrogen peroxide-induced FA production,human retina cells; human retina cells,attenuated
same,Effect on hydrogen peroxide-induced FA elevations,"[1]; HRPE cells, NAC 1 mM, 30 minutes pre-incubation",completely blocked FA elevations
CCCCCCCCCCCCCCC[C@@H](O)[C@H](CO)NC(C)=O [dihydroceramide C2],Effect on ceramide-induced FA increases,"[1]; HRPE cells, dihydroceramide C2 50 μM, 30 minutes pre-incubation",completely blocked FA increases
OO [hydrogen peroxide],FA production with apoptotic stimulus,rat neural retina cells,induced
same,FA production with apoptotic stimulus,rat neural retina cells; listed as H2O2,elevated flavoprotein autofluorescence (FA)
same,"Neural retinal apoptosis, avarage (cytoplasmic histone-associated DNA fragments)","human neural retina; 6 hr, H2O2 200, NAC 1 mM, control 1.0000",4.3610
same,Cell death induced by agent,human neural retina; FIG. 24,increased
same,FA production with apoptotic stimulus,human retina cells,induced
same,FA production with apoptotic stimulus,human retina cells; listed as H2O2,elevated flavoprotein autofluorescence (FA)
same,FA after exposure to pro-apoptotic agent,[1]; HRPE cells,significantly elevated FA
